The record followed here is ChEMBL document CHEMBL1201862, “PubChem BioAssay data set” (2004).

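Protocol summary: plate cells (96-well), add compound at 5 concentrations, incubate 48 h, interpolate endpoints linearly. At the GI50, growth is halved.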 Active and inactive are the calls of the source. No stated cut-off is given here; in the data, active = GI50 up to about 1.1 µM and inactive = higher. Some results are limits rather than exact numbers.

Test systems include NCI-H522; SK-OV-3; MOLT-4; SNB-78; HCT-15; U-251; K562; HCT-116; COLO 205; OVCAR-3; NCI-H226; Malme-3M; UACC-62; SR; UO-31; A549; M14.
Holding throughout (test): NCI anticancer screen, dose series, 48 h

With `CCOc1ccc(/C=C2/C(=O)N=C(N)N=C2N)cc1OCC`, the GI50 was > 100 µM (inactive) in the test on NCI-H522; > 100 µM (inactive) in the test with SK-OV-3; > 100 µM (inactive) with MOLT-4; > 100 µM (inactive) in the test with SNB-78; above 100 µM in the test on HCT-15; > 100 µM (inactive) in the test on U-251. Besides, the GI50 in the test with K562, with HCT-116, with COLO 205, in the test with OVCAR-3, with NCI-H226 and with Malme-3M was > 100 µM (inactive) each time. Also, the GI50 with UACC-62, in the test with SR, in the test with UO-31, with A549 and with M14 was > 100 µM (inactive) throughout.
`Cc1ccccc1N(CCC#N)C1=NN(C(=O)CC(=O)Nc2ccccc2)C(c2ccccc2)C1` (stereo not drawn): the GI50 with NCI-H522 was > 100 µM (inactive); in the test on SK-OV-3, > 100 µM (inactive); with MOLT-4 it was > 100 µM (inactive); in the test with SNB-78, 67.9 µM (inactive); in the test on HCT-15 it was above 100 µM; in the test on U-251 it was > 100 µM (inactive). Besides, the GI50 in the test on K562, with HCT-116, in the test with COLO 205, with OVCAR-3, in the test with NCI-H226 and in the test on Malme-3M was > 100 µM (inactive) throughout. For the same molecule, the GI50 with UACC-62 is > 100 µM (inactive); with SR, 44.1 µM (inactive); in the test on UO-31, > 100 µM (inactive); with A549 it was > 100 µM (inactive); in the test on M14, > 100 µM (inactive).
As to `COc1nc2c(c(O)c(C)c(=O)n2OC2OC(COC(C)=O)C(OC(C)=O)C(OC(C)=O)C2OC(C)=O)c(=O)n1C` (stereo not drawn), the GI50 with NCI-H522 was 44.8 µM (inactive); in the test with MOLT-4 it was > 100 µM (inactive); with SNB-78 it was > 100 µM (inactive); in the test on HCT-15, above 100 µM; in the test with U-251, > 100 µM (inactive); in the test on K562 it was > 100 µM (inactive). In addition, the GI50 with HCT-116, with COLO 205, in the test with NCI-H226, in the test with UACC-62, with SR and with UO-31 was > 100 µM (inactive) throughout. In addition, the GI50 in the test on A549 and in the test with M14 was > 100 µM (inactive) throughout.
Take `COc1cc2oc(-c3ccccc3)cc(=O)c2c(O)c1C`: the GI50 in the test with NCI-H522 is > 100 µM (inactive); with SK-OV-3, > 100 µM (inactive); in the test on MOLT-4, > 100 µM (inactive); with SNB-78, > 100 µM (inactive); in the test on HCT-15, above 100 µM; in the test with U-251, > 100 µM (inactive). The GI50 with K562, with HCT-116, in the test on COLO 205, in the test with OVCAR-3, in the test on NCI-H226 and with Malme-3M was > 100 µM (inactive) each time. The GI50 in the test on UACC-62, in the test on SR, with UO-31, in the test with A549 and in the test with M14 was > 100 µM (inactive) throughout.
In the case of `c1ccc2cc(C3NCCc4nc[nH]c43)ccc2c1` (stereo not drawn), the GI50 in the test with NCI-H522 is 34 µM (inactive); with SK-OV-3 it was > 100 µM (inactive); in the test on MOLT-4, 25.1 µM (inactive); in the test with SNB-78, > 100 µM (inactive); with HCT-15 it was 42.6 µM; in the test with U-251, 90.8 µM (inactive). Besides, the GI50 in the test with K562 was 29.6 µM (inactive); in the test on HCT-116, 67.3 µM (inactive); in the test on COLO 205, 24.9 µM (inactive); with OVCAR-3 it was 61.2 µM (inactive); in the test with NCI-H226, > 100 µM (inactive); with UACC-62 it was 55.7 µM (inactive). The GI50 with SR was 54.2 µM (inactive); with UO-31, 35.8 µM (inactive); with A549, > 100 µM (inactive); in the test with M14 it was 39.9 µM (inactive).
`N#CCCn1[nH]c(=O)c(Cl)c(Cl)c1=O`: the GI50 in the test on NCI-H522 is 20.2 µM (inactive); in the test with MOLT-4, 15.9 µM (inactive); with SNB-78 it was 19.6 µM (inactive); in the test with HCT-15, 10.4 µM; with U-251, 16.6 µM (inactive); in the test with K562 it was 6.12 µM (inactive). Moreover, the GI50 was 15.1 µM (inactive) with HCT-116; 22.2 µM (inactive) with COLO 205; 13.6 µM (inactive) with OVCAR-3; 23 µM (inactive) in the test on NCI-H226; 17.3 µM (inactive) with Malme-3M; 14.7 µM (inactive) in the test with SR. In addition, the GI50 with UO-31 is 18.9 µM (inactive); with A549, 22.7 µM (inactive).
On to `NNC(=O)N/N=C1\C(=O)N(c2ccc(Cl)c(Cl)c2)C(=O)C(=O)C1c1nc2ccccc2s1` (stereo not drawn), for which the GI50 in the test with NCI-H522 is > 100 µM (inactive); in the test with SK-OV-3 it was > 100 µM (inactive); with MOLT-4, 69.3 µM (inactive); in the test with SNB-78, > 100 µM (inactive); in the test with HCT-15, above 100 µM; with U-251 it was > 100 µM (inactive). The GI50 with HCT-116, with COLO 205, with OVCAR-3, with NCI-H226, in the test with Malme-3M and in the test on UACC-62 was > 100 µM (inactive) in each case. Further, the GI50 was 89.9 µM (inactive) in the test on SR, > 100 µM (inactive) in the test on UO-31, > 100 µM (inactive) in the test on A549 and > 100 µM (inactive) in the test with M14.
With `COc1ccc(/C=C2\CCC(C)(CN(C)C)C2=O)cc1` (stereo not drawn), the GI50 in the test on NCI-H522 was 16.3 µM (inactive); in the test on MOLT-4, > 100 µM (inactive); in the test with SNB-78 it was > 100 µM (inactive); with HCT-15, 60.8 µM; in the test on U-251, 76.4 µM (inactive); with K562, 64 µM (inactive). The GI50 with HCT-116, in the test on COLO 205, with OVCAR-3, with NCI-H226, in the test on Malme-3M and in the test on UACC-62 was > 100 µM (inactive) in each case. Moreover, the GI50 in the test with SR is > 10 µM (inactive); with UO-31, > 100 µM (inactive); with A549, > 100 µM (inactive); with M14 it was > 100 µM (inactive).
Turning to `COc1ccc(N2C(=O)C3CC(c4ccc(C)cc4)c4c([nH]c5ccccc45)C3C2=O)cc1` (stereo not drawn), the GI50 was 19.5 µM (inactive) in the test with NCI-H522; 29.5 µM (inactive) in the test with SK-OV-3; 21 µM (inactive) in the test on MOLT-4; > 51.4 µM (inactive) in the test with SNB-78; 8.61 µM with HCT-15; 10 µM (inactive) with U-251. Further, the GI50 in the test on K562 is > 63 µM (inactive); in the test with HCT-116 it was 4.43 µM (inactive); in the test on COLO 205, 20.7 µM (inactive); in the test with OVCAR-3, 5.65 µM (inactive); in the test with NCI-H226, 9.53 µM (inactive); in the test on Malme-3M, 15.5 µM (inactive). In addition, the GI50 was > 100 µM (inactive) in the test with UACC-62; 2.02 µM (inactive) in the test with SR; > 47.2 µM (inactive) in the test on UO-31; 12.2 µM (inactive) in the test on A549; 33.8 µM (inactive) in the test on M14.
Take `O=C(O)/C(Cl)=C(Cl)/C=N/NC(=O)c1cc2ccccc2cc1O`: the GI50 was 22.1 µM (inactive) with NCI-H522; 49.2 µM (inactive) in the test with SK-OV-3; 5.89 µM (inactive) in the test on MOLT-4; 33.7 µM (inactive) with SNB-78; 19.4 µM in the test with HCT-15; 27.5 µM (inactive) in the test on U-251. Moreover, the GI50 in the test with K562 is 6.11 µM (inactive); in the test on HCT-116, 13.9 µM (inactive); in the test on COLO 205 it was 32.5 µM (inactive); with OVCAR-3 it was 6.11 µM (inactive); in the test with NCI-H226, 18.6 µM (inactive); in the test on Malme-3M, 37.2 µM (inactive). Also, the GI50 is 3.6 µM (inactive) with UACC-62; 9.55 µM (inactive) with SR; 2.48 µM (inactive) with UO-31; 9.18 µM (inactive) in the test on A549; 14.5 µM (inactive) in the test on M14.
In the case of `CN1NC2(CCCCC2)ON=C1c1ccccc1`, the GI50 in the test on NCI-H522 is > 100 µM (inactive); in the test with SK-OV-3, > 100 µM (inactive); in the test with MOLT-4, > 100 µM (inactive); in the test on SNB-78, > 100 µM (inactive); with HCT-15, above 100 µM; with U-251, > 100 µM (inactive). The GI50 in the test with K562, in the test on HCT-116, with COLO 205, in the test with OVCAR-3, in the test with NCI-H226 and in the test on Malme-3M was > 100 µM (inactive) each time. In addition, the GI50 with UACC-62, in the test on SR, in the test with A549 and with M14 was > 100 µM (inactive) in each case.
In the case of `CC(=O)OC1CC2(C)OC(Cc3ccccc32)O1` (stereo not drawn), the GI50 in the test on NCI-H522, in the test with SK-OV-3, in the test on MOLT-4, with SNB-78, with U-251 and with K562 was > 100 µM (inactive) throughout. For the same molecule, the GI50 with HCT-116, with COLO 205, in the test on OVCAR-3, with NCI-H226, with Malme-3M and in the test with UACC-62 was > 100 µM (inactive) in each case. In addition, the GI50 in the test on SR, in the test on UO-31, in the test with A549 and in the test on M14 was > 100 µM (inactive) each time.
